Among the data in ChEMBL document CHEMBL3407440, “Monocarbonyl analogs of curcumin inhibit growth of antibiotic sensitive and resistant strains of Mycobacterium tuberculosis” (Eur J Med Chem, 2015) are IC50 values, retold here.

In the assay the test system is Mycobacterium tuberculosis. As to the kind of experiment: Antituberculosis activity against rifampicin-resistant Mycobacterium tuberculosis H37Rv assessed as growth inhibition after 72 hrs by liquid culture assay. Format: functional, organism-based.

As to `CN1C/C(=C\c2ccccn2)C(=O)/C(=C/c2ccccn2)C1`, the 50% inhibitory concentration (IC50) (commonly the concentration needed to halve the response being measured) worked out at 7 µM.
`O=C1/C(=C/c2ccccc2F)CNC/C1=C\c1ccccc1F`: the half-maximal inhibitory concentration (IC50) is 20 µM.
